Test results from patent publication US9073927B2, “Inhibitors of PI3 kinase” (FUNDACION CENTRO NACIONAL DE INVESTIGACIONES ONCOLOGICAS …, priority 2010, dated 2015).
Read-outs that look alike come from different tables or passages of the source. Each block holds one compound with its values, some of them ahead of it.

Tests used:
SKVO3 cells = assay: In vitro cell proliferation / combination assay (MTT), SKVO3; format: cell-based; details: SKVO3, Ovarian, PIK3CA, p53
Protocol: Cells were seeded at 10000-50000 cells/well in 96 plates for 16 h. On day two, nine serial 1:3 compound dilutions were made in DMSO in a 96 well plate. The compounds were added to duplicate wells in 96-well cell plates a using a FX BECKMAN robot (Beckman Coulter) and incubated at 37° C. with CO2 atmosphere. After 3 days, relative numbers of viable cells were measured by MTT (Sigma) according to manufacturer's instruction and read on EndVision (Perkin Elmer). EC50 values were calculated using Activityl)ase from IDBS. Drugs in combination assays were dosed starting at 4×EC50 concentrations and continuing with serial dilutions 1:2. […]
An additional exemplary in vitro cell proliferation assay includes the following steps: • 1. […] Formazan salt formed was recorded and reported in graphs as relative growth vs. cells treated only with dmso.
The individual measured EC50 values against the particular cell of the exemplary compounds and of the chemotherapeutic agent are compared to the combination EC50 value. The combination Index (CI) score is calculated by the Chou and Talalay method (CalcuSyn software, Biosoft). […]
The individual measured EC50 values against the particular cell of the exemplary compounds and of the chemotherapeutic agents are compared to the combination EC50 value. The combination Index (CI) score is calculated by the Chou and Talalay method (CalcuSyn software, Biosoft). […]

PI3K (p110α/p85α) = molecular target: T1, PI3K (p110α/p85α) (Homo sapiens, UniProt P42336); assay: PI3K activity assay (ADP Hunter Plus); format: biochemical
T1 construct: purchased Carna Biosciences 07CBS-0402A
Protocol: The kinase activity was measured by using the commercial ADP Hunter™ Plus assay available from DiscoveRx (#33-016), which is a homogeneous assay to measure the accumulation of ADP, a universal product of kinase activity. The enzyme, PI3K (p110α/p85α was purchased from Carna Biosciences (#07CBS-0402A). The assay was done following the manufacturer recommendations with slight modifications: Mainly the kinase buffer was replace by 50 mM HEPES, pH 7.5, 3 mM MgCl2, 100 mM NaCl, 1 mM EGTA, 0.04% CHAPS, 2 mM TCEP and 0.01 mg/ml BGG. The PI3K was assayed in a titration experiment to determine the optimal protein concentration for the inhibition assay. To calculate the IC50 of the ETP-compounds, serial 1:5 dilutions of the compounds were added to the enzyme at a fixed concentration (2.5 μg/ml. The enzyme was preincubated with the inhibitor and 30 μM PIP2 substrate (P9763, Sigma) for 5 min and then ATP was added to a final 50 μM concentration. Reaction was carried out for 1 hour at 25° C. Reagent A and B were sequentially added to the wells and plates were incubated for 30 min at 37° C. Fluorescence counts were read in a Victor instrument (Perkin Elmer) with the recommended settings (544 and 580 nm as excitation and emission wavelengths, respectively). Values were normalized against the control activity included for each enzyme (i.e., 100% PI3 kinase activity, without compound). These values were plot against the inhibitor concentration and were fit to a sigmoid dose-response curve by using the Graphad software.

A549 cells = assay: In vitro cell proliferation / combination assay (MTT), A549; format: cell-based; details: for EC50: Homo sapiens, A549, Lung, Ras G12S; for Synergy / Combination Index (Cl): A549; for Combination Index (Cl): Chou and Talalay
Protocol: Cells were seeded at 10000-50000 cells/well in 96 plates for 16 h. On day two, nine serial 1:3 compound dilutions were made in DMSO in a 96 well plate. The compounds were added to duplicate wells in 96-well cell plates a using a FX BECKMAN robot (Beckman Coulter) and incubated at 37° C. with CO2 atmosphere. After 3 days, relative numbers of viable cells were measured by MTT (Sigma) according to manufacturer's instruction and read on EndVision (Perkin Elmer). EC50 values were calculated using Activityl)ase from IDBS. Drugs in combination assays were dosed starting at 4×EC50 concentrations and continuing with serial dilutions 1:2. PI3K inhibitors and chemotherapeutic agents were added simultaneously.
An additional exemplary in vitro cell proliferation assay includes the following steps: • 1. An aliquot of 200 μl of cell culture containing optimal density (between 10^4-5×10^4 cells) (see Examples for cell lines and tumour type) in medium was deposited in each well of a 96-well flat bottom plates. • 2. Control wells were prepared containing medium without cells • 3. The compound was added to the experimental wells and incubated for 3 days. • 4. One quarter volume of MTT reagent with respect to the volume of cell culture medium present in each well was added and incubated 24 h at 37° C. with 5% CO2. • 5. One quarter volume of solubilisation buffer with respect to the volume of cell culture medium present in each well was added and incubated 24 h at 37° C. with 5% CO2. • 6. Formazan salt formed was recorded and reported in graphs as relative growth vs. cells treated only with dmso.
(§1) The individual measured EC50 values against the particular cell of the exemplary compounds and of the chemotherapeutic agent are compared to the combination EC50 value. The combination Index (CI) score is calculated by the Chou and Talalay method (CalcuSyn software, Biosoft). A CI less 0.8 indicates synergy. A CI between 0.8 and 1.2 indicates additivity. A CI greater than 1.2 indicates antagonism.
as §1, with “agents” for “agent”

phospho-Ser-473-Akt = assay: PI3K signalling: AKT phosphorylation inhibition, Western blot analysis; format: cell-based; details: read-out: p-AKT (IC50, WB)
Protocol: AKT Phosphorylation Inhibition Western Blot Analysis
Subconfluent cells were incubated under different conditions and washed twice with TBS prior to lysis. Lysis buffer was added containing 50 mM Tris HCl, 150 mM NaCl, 1% NP-40, 2 mM Na3VO4, 100 mM NaF, 20 mM Na4P2O7 and protease inhibitor cocktail (Roche Molecular Biochemicals). The proteins were resolved on 10% SDS-PAGE and transferred to nitrocellulose membrane (Schleicher & Schuell, Dassel, Germany). The membranes were incubated overnight at 4° C. with antibodies specific for Akt, phospho-Ser-473-Akt (Cell Signaling Technology) and α-tubulin (Sigma), they were washed and then incubated with IRDye800 conjugated anti-mouse and Alexa Fluor 680 goat anti-rabbit IgG secondary antibodies. The bands were visualized using an Odyssey infrared imaging system (Li-Cor Biosciences). Compounds of the invention have a range of in vitro cell potency activities from about 1 nM to about 10 μM.
Compounds of the examples/invention were tested in the PI3K signalling cellular assay described hereinbefore (Western Blot Analysis), which measures AKT phosphorylation inhibition. Cellular activity of representative compounds, is represented in the table below: […]

[1] = therapeutic (comp. (B)) alone, read-out: Chemot. EC50
[2] = compound alone, read-out: Compound No. 2-4 (comp. (A)) EC50
[3] = combination of 2-4 with Lapatinib
[4] = combination of 2-4 with PD-0325901

T1 sequence (P42336 whole entry): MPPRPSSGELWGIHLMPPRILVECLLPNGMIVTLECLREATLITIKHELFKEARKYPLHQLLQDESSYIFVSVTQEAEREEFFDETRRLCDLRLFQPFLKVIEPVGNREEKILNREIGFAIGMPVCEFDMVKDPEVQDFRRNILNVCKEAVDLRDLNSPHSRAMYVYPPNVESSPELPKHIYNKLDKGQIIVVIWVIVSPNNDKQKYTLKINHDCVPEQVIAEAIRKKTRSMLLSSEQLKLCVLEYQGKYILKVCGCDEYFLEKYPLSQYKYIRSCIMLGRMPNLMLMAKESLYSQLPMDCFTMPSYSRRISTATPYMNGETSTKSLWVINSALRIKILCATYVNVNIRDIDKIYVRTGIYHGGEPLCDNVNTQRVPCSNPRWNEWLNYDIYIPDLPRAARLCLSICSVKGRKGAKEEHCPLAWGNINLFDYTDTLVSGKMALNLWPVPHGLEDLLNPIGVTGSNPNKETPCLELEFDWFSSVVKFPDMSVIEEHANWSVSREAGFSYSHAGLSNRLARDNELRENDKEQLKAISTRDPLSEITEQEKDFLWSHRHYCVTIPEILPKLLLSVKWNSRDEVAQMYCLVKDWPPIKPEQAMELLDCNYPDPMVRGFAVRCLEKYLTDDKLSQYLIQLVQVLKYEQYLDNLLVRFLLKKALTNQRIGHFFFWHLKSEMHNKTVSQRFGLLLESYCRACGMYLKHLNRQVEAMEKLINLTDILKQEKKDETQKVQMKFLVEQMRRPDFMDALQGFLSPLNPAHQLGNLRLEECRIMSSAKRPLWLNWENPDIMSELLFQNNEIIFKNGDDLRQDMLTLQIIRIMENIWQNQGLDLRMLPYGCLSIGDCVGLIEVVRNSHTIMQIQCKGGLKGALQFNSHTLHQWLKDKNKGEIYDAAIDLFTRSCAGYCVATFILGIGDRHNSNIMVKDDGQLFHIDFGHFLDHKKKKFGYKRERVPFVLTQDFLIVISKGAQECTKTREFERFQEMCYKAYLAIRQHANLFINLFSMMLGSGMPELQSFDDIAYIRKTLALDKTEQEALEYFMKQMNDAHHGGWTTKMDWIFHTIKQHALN
T1 sequence (P27986 whole entry partner): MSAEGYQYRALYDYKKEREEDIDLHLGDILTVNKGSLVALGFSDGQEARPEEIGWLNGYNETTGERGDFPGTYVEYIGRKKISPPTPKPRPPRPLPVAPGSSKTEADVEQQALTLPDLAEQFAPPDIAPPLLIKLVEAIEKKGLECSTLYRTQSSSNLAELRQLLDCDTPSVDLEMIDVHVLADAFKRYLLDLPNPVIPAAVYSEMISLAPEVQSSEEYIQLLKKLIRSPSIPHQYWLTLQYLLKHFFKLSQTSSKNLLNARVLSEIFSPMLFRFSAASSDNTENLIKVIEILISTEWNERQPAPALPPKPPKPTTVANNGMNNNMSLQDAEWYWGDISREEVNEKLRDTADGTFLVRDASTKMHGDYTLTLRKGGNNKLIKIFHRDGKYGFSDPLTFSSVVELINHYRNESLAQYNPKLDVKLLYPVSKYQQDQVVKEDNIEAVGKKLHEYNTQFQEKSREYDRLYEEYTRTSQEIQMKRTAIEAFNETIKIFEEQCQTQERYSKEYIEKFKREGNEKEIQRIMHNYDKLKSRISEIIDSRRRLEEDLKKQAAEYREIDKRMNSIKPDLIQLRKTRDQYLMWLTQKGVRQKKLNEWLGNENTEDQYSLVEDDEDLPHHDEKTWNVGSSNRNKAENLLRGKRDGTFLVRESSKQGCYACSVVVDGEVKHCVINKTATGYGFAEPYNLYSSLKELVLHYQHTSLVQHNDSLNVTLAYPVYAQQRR

SMILES: Cc1nnc2c(N3CCOCC3)nc(-c3cnc(N)nc3)cn12 [Compound 3-5]
IC50 (PI3K (p110α/p85α); Table 4, read-out: PI3Kα): 165 nM

SMILES: O=C(NOC[C@H](O)CO)c1ccc(F)c(F)c1Nc1ccc(I)cc1F [PD-0325901, (R)—N-(2,3-dihydroxypropoxy)-3,4-difluoro-2-(2-fluoro-4-iodophenylamino)benz-amide, reference compound]
EC50 (A549 cells; [1]): 1000 nM

SMILES: CS(=O)(=O)N1CCCN(Cc2cc3c(N4CCOCC4)nc(-c4cnc(N)nc4)cn3n2)CC1 [Compound 3-16, 5-[2-(4-methanesulfonyl-[1,4]diazepan-1-ylmethyl)-4-morpholin-4-yl-pyrazolo[1,5-a]pyrazin-6-yl]-pyrimidin-2-ylamine]
IC50 (PI3K (p110α/p85α); read-out: IC50 PI3Kα): 13 nM

SMILES: OCc1cc2c(N3CCOCC3)nc(-c3cccc(O)c3)cn2n1 [Compound 3-2]
IC50 (PI3K (p110α/p85α); Table 4, read-out: PI3Kα): 174 nM

SMILES: COCCN(C)Cc1cc2c(N3CCOCC3)nc(-c3cnc(N)nc3)cn2n1 [Compound 3-14, 5-(2-{[(2-methoxy-ethyl)-methyl-amino]-methyl}-4-morpholin-4-yl-pyrazolo[1,5-a]pyrazin-6-yl)-pyrimidin-2-ylamine]
IC50 (PI3K (p110α/p85α); read-out: IC50 PI3Kα): 106 nM

SMILES: CS(=O)(=O)N1CCN(Cc2nc3c(N4CCOCC4)nc(-c4cnc(N)nc4)c(Cl)n3n2)CC1 [Compound 2-4]
IC50 (PI3K (p110α/p85α); Table 3, read-out: PI3Kα): 1.4 nM
IC50 (phospho-Ser-473-Akt): 64 nM
EC50 (SKVO3 cells; [2]): 1000 nM
Synergy (A549 cells; [3]): − (a combination index greater than 1.2)
Combination Index (Cl) (A549 cells; [3]): 2.44
Synergy (A549 cells; [4]): +++ (a combination index greater than 0.1 but lower than 0.3)
Combination Index (Cl) (A549 cells; [4]): 0.27
EC50 (A549 cells; [2]): 1000 nM

SMILES: Oc1cccc(-c2cn3cncc3c(N3CCOCC3)n2)c1 [Compound 3-11]
IC50 (PI3K (p110α/p85α); Table 4, read-out: PI3Kα): 317 nM

SMILES: CC(C)S(=O)(=O)N1CCN(Cc2cc3c(N4CCOCC4)nc(-c4cnc(N)nc4)cn3n2)CC1 [Compound 3-18, 5-{4-morpholin-4-yl-2-[4-(propane-2-sulfonyl)-piperazin-1-ylmethyl]-pyrazolo[1,5-a]pyrazin-6-yl}-pyrimidin-2-ylamine]
IC50 (PI3K (p110α/p85α); read-out: IC50 PI3Kα): 6 nM

SMILES: Nc1ncc(-c2cn3nc(CN4CCOCC4)cc3c(N3CCOCC3)n2)cn1 [Compound 3-17, 5-(4-morpholin-4-yl-2-morpholin-4-ylmethyl-pyrazolo[1,5-a]pyrazin-6-yl)-pyrimidin-2-ylamine]
IC50 (PI3K (p110α/p85α); read-out: IC50 PI3Kα): 80 nM

SMILES: CS(=O)(=O)CCNCc1ccc(-c2ccc3ncnc(Nc4ccc(OCc5cccc(F)c5)c(Cl)c4)c3c2)o1 [Lapatinib, N-(3-chloro-4-(3-fluorobenzyloxy)phenyl)-6-(5-((2-(methylsulfonyl)ethylamino)-methyl)furan-2-yl)quinazolin-4-amine, reference compound]
EC50 (A549 cells; [1]): 1000 nM

SMILES: CS(=O)(=O)N1CCC(NCc2cc3c(N4CCOCC4)nc(-c4cnc(N)nc4)cn3n2)CC1 [Compound 3-13, 5-{2-[(1-methanesulfonyl-piperidin-4-ylamino)-methyl]-4-morpholin-4-yl-pyrazolo[1,5-a]pyrazin-6-yl}-pyrimidin-2-ylamine]
IC50 (PI3K (p110α/p85α); read-out: IC50 PI3Kα): 58 nM

More lines, now with the values ahead:

EC50 (SKVO3 cells; [1]): 2000 nM
SMILES: CC(=O)O[C@@]12CO[C@@H]1C[C@H](O)[C@@]1(C)C(=O)[C@H](O)C3=C(C)[C@@H](OC(=O)[C@H](O)[C@@H](NC(=O)OC(C)(C)C)c4ccccc4)C[C@](O)([C@@H](OC(=O)c4ccccc4)[C@H]21)C3(C)C [Taxotere, (2R,3S)—N-carboxy-3-phenylisoserine, N-tert-butyl ester, 13-ester with 5,20-epoxy-1,2,4,7,10,13-hexahydroxytax-11-en-9-one 4-acetate 2-benzoate, trihydrate, reference compound]

IC50 (PI3K (p110α/p85α); Table 3, read-out: PI3Kα): 3 nM
IC50 (phospho-Ser-473-Akt): 12 nM
SMILES: CS(=O)(=O)N1CCN(Cc2nc3c(N4CCOCC4)nc(-c4cnc(N)nc4)cn3n2)CC1 [Compound 2-3]

IC50 (PI3K (p110α/p85α); Table 4, read-out: PI3Kα): 952 nM
SMILES: Cc1nnc2c(N3CCOCC3)nc(-c3cccc(O)c3)cn12 [Compound 3-6]

IC50 (PI3K (p110α/p85α); Table 4, read-out: PI3Kα): 2000 nM
SMILES: COc1cccc(-c2cn3cncc3c(N3CCOCC3)n2)c1 [Compound 3-12, 6-(3-methoxy-phenyl)-8-morpholin-4-yl-imidazo[1,5-a]pyrazine]

IC50 (PI3K (p110α/p85α); Table 4, read-out: PI3Kα): 3 nM
IC50 (phospho-Ser-473-Akt): 5 nM
SMILES: CS(=O)(=O)N1CCN(Cc2cn3nc(-c4cnc(N)nc4)nc(N4CCOCC4)c3n2)CC1 [Compound 3-9]

IC50 (PI3K (p110α/p85α); Table 4, read-out: PI3Kα): 2 nM
IC50 (phospho-Ser-473-Akt): 14 nM
SMILES: CS(=O)(=O)N1CCN(Cc2cc3c(N4CCOCC4)nc(-c4cnc(N)nc4)cn3n2)CC1 [Compound 3-10, 5-[2-(4-methanesulfonyl-piperazin-1-ylmethyl)-4-morpholin-4-yl-pyrazolo[1,5-a]pyrazin-6-yl]-pyrimidin-2-ylamine]

IC50 (PI3K (p110α/p85α); Table 3, read-out: PI3Kα): 128 nM
SMILES: CS(=O)(=O)N1CCN(Cc2nc3c(N4CCOCC4)nc(-c4cccc5[nH]ncc45)cn3n2)CC1 [Compound 2-2]
